In US9914739B2, “6H-furo[2,3-E]indole compounds for the treatment of hepatitis C” (BRISTOL-MYERS SQUIBB COMPANY, priority 2014, dated 2018) one finds EC50 data, which are given here for 43 compounds.

The subject of the assay is genotype 1b (Con-1) HCV replicon. The assay can be described thus: HCV replicon luciferase assay, genotype 1b. To be noted: Hepatitis C virus, Huh-7, 72 h, Huh-7 cells with genotype 1b HCV replicon, Renilla luciferase, 3 days incubation. The assay is classed as cell-based. The procedure:
The cell lines used to evaluate compounds consist of a human hepatocyte derived cell line (Huh-7) that constitutively expresses a genotype 1b (Con-1) HCV replicon or a genotype 1b (Con-1) HCV replicon with an asparagine replacing the cysteine at amino acid 316, or a genotype 2a (JFH-1) replicon, containing a Renilla luciferase reporter gene. These cells were maintained in Dulbecco's modified Eagle medium (DMEM) containing 10% FBS, 100 U/mL penicillin/streptomycin and 1.0 mg/mL G418.
To evaluate compound efficacy, titrated compounds were transferred to sterile 384-well tissue culture treated plates, and the plates were seeded with HCV replicon cells (50 μL at a density of 2.4×10^3 cells/well) in DMEM containing 4% FBS (final DMSO concentration at 0.5%). After 3 days incubation at 37° C., cells were analyzed for Renilla Luciferase activity using the EnduRen substrate (Promega cat #E6485) according to the manufacturer's directions. Briefly, the EnduRen substrate was diluted in DMEM and then added to the plates to a final concentration of 7.5 μM. The plates were incubated for at least 1 h at 37° C. then read on a Viewlux Imager (PerkinElmer) using a luminescence program. The 50% effective concentration (EC50) was calculated using the four-parameter logistic formula noted above.

Structures are written as SMILES.

Turning to `CNC(=O)c1c(-c2ccc(F)cc2)oc2c1cc(-c1cccc(C(=O)NCC(C)(C)C)c1)c1[nH]ccc12` [Compound 4001, 2-(4-fluorophenyl)-N-methyl-5-(3-(neopentylcarbamoyl)phenyl)-6H-furo[2,3-e]indole-3-carboxamide], the EC50 runs as follows: (class symbol) under 0.1 µM; (numeric value) 0.083 µM. The compound `C#CC1(NC(=O)c2cccc(-c3cc4c(C(=O)NC)c(-c5ccc(F)cc5)oc4c4cc[nH]c34)c2)CCCCC1` [Compound 4017] registered an EC50 (class symbol) of 0.1 to 1 µM. On to `CNC(=O)c1c(-c2ccc(F)cc2)oc2c1cc(-c1cccc(C(=O)NCC3(CO)CCC3)c1)c1[nH]ccc12` [Compound 4011], for which, under “class symbol”, the EC50 was in the range of 0.1 to 1 µM. With `CNC(=O)c1c(-c2ccc(F)cc2)oc2c1cc(-c1cccc(C(=O)NC(C)(C)C)c1)c1[nH]cc(C)c12` [Compound 1006], the concentration for a half-maximal effect (EC50) runs as follows: (class symbol) 0.1 to 1 µM; (numeric value) 0.51 µM. Where the note is “class symbol”, `CCOC(=O)c1c(-c2ccc(F)cc2)oc2c1cc(OC(C)C)c1[nH]ccc12` [Compound 1001, ethyl 2-(4-fluorophenyl)-5-isopropoxy-6H-furo[2,3-e]indole-3-carboxylate] had an EC50 of over 1 µM. Compound `CCc1cn(CC)c2c(OC(C)C)cc3c(C(=O)NC)c(-c4ccc(F)cc4)oc3c12` [Compound 6005] displayed an EC50 (class symbol) of over 1 µM. In turn, `CNC(=O)c1c(-c2ccc(F)cc2)oc2c1cc(-c1cccc(C(=O)NC(C)(C)C)c1)c1c2c(C)cn1S(C)(=O)=O` [Compound 5003] yielded an EC50 (class symbol) of over 1 µM. For the compound `CNC(=O)C(=O)c1c[nH]c2c(-c3cccc(C(=O)NC(C)(C)C)c3)cc3c(C(=O)NC)c(-c4ccc(F)cc4)oc3c12` [Compound 2005], the EC50 is over 1 µM (class symbol) and 5.16 µM (numeric value). Under “class symbol”, `CCn1ccc2c3oc(-c4ccc(F)cc4)c(C(=O)NC)c3cc(OC(C)C)c21` [Compound 6002] came in with an EC50 of over 1 µM. `C#CC(C)(C)NC(=O)c1cccc(-c2cc3c(C(=O)NC)c(-c4ccc(F)cc4)oc3c3cc[nH]c23)c1` [Compound 4013]: the EC50 (class symbol) is under 0.1 µM. As for `CCN(CC(C)(C)C)C(=O)c1cccc(-c2cc3c(C(=O)NC)c(-c4ccc(F)cc4)oc3c3ccn(CC)c23)c1` [Compound 6007], the EC50 (class symbol) lay in the range of 0.1 to 1 µM. Compound `CNC(=O)c1c(-c2ccc(F)cc2)oc2c1cc(-c1cccc(C(=O)NC(C)(C)CCO)c1)c1[nH]ccc12` [Compound 4003] showed an EC50 (class symbol) of under 0.1 µM.

The compound `CNC(=O)c1c(-c2ccc(F)cc2)oc2c1cc(-c1cccc(C(=O)NC(C)(C)C)c1)c1[nH]c(-c3ccccc3)cc12` [Compound 1007] showed an EC50 (class symbol) of 0.1 to 1 µM. With `CNC(=O)c1c(-c2ccc(F)cc2)oc2c1cc(-c1cccc(C(=O)NC(C)(C)C)c1)c1[nH]cc(C(=O)C(=O)N(C)C)c12` [Compound 2006], the EC50 (class symbol) is over 1 µM. Regarding `CNC(=O)c1c(-c2ccc(F)cc2)oc2c1cc(-c1cccc(C(=O)NC(C)(C)C)c1)c1[nH]cc(C(=O)C(=O)O)c12` [Compound 2004, 2-(5-(3-(tert-butylcarbamoyl)phenyl)-2-(4-fluorophenyl)-3-(methylcarbamoyl)-6H-furo[2,3-e]indol-8-yl)-2-oxoacetic acid], where the note is “class symbol”, the EC50 was over 1 µM. Regarding `CNC(=O)c1c(-c2ccc(F)cc2)oc2c1cc(OC(C)C)c1[nH]ccc12` [Compound 1002, 2-(4-fluorophenyl)-5-isopropoxy-N-methyl-6H-furo[2,3-e]indole-3-carboxamide], the EC50 (class symbol) was over 1 µM.

As to `CNC(=O)c1c(-c2ccc(F)cc2)oc2c1cc(-c1cccc(C(=O)NC(C)(C)C#N)c1)c1[nH]ccc12` [Compound 4022], the EC50 is, setting by setting: (class symbol) under 0.1 µM; (numeric value) 0.015 µM. Take `C#CC(C)(CC)NC(=O)c1cccc(-c2cc3c(C(=O)NC)c(-c4ccc(F)cc4)oc3c3cc[nH]c23)c1` (centres unmarked) [Compound 4019]: the EC50 (class symbol) fell in the range of 0.1 to 1 µM. On the same count and under the same terms, with `CNC(=O)c1c(-c2ccc(F)cc2)oc2c1cc(-c1cccc(C(=O)O)c1)c1[nH]ccc12` [Compound 3001, 3-(2-(4-fluorophenyl)-3-(methylcarbamoyl)-6H-furo[2,3-e]indol-5-yl)benzoic acid] the figure was over 1 µM. Consider `CNC(=O)c1c(-c2ccc(F)cc2)oc2c1cc(-c1cccc(C(=O)NC(C)(C)c3ccc(Cl)cc3)c1)c1[nH]ccc12` [Compound 4010], for which the EC50 was under 0.1 µM (class symbol) and 0.027 µM (numeric value). In turn, `C#CC(CC)(CC)NC(=O)c1cccc(-c2cc3c(C(=O)NC)c(-c4ccc(F)cc4)oc3c3cc[nH]c23)c1` [Compound 4018] displayed an EC50 (class symbol) of under 0.1 µM.

Consider `CNC(=O)c1c(-c2ccc(F)cc2)oc2c1cc(-c1cccc(C(=O)NC(C)(C)C(=O)OC)c1)c1[nH]ccc12` [Compound 4004], for which the EC50 (class symbol) is under 0.1 µM. On to `CNC(=O)c1c(-c2ccc(F)cc2)oc2c1cc(OC(C)C)c1c2ccn1CC(F)F` [Compound 6001], for which the EC50 (class symbol) was over 1 µM. On to `CNC(=O)c1c(-c2ccc(F)cc2)oc2c1cc(-c1cccc(C(=O)NCC(C)(C)CO)c1)c1[nH]ccc12` [Compound 4008], for which the EC50 is, setting by setting: (class symbol) 0.1 to 1 µM; (numeric value) 0.13 µM.

In the case of `CNC(=O)c1c(-c2ccc(F)cc2)oc2c1cc(-c1cccc(C(=O)NC(C)(C)C)c1)c1[nH]ccc12` [Compound 1005, 5-(3-(tert-butylcarbamoyl)phenyl)-2-(4-fluorophenyl)-N-methyl-6H-furo[2,3-e]indole-3-carboxamide], the EC50 is under 0.1 µM (class symbol) and 0.05 µM (numeric value). Turning to `CNC(=O)c1c(-c2ccc(F)cc2)oc2c1cc(-c1ccc(OC)c(C(=O)NCC(F)(F)C(F)(F)C(F)(F)F)c1)c1[nH]ccc12` [Compound 1009], the EC50 (class symbol) is under 0.1 µM. With `CNC(=O)c1c(-c2ccc(F)cc2)oc2c1cc(-c1cccc(C(=O)NC3(c4ncccn4)CC3)c1)c1[nH]ccc12` [Compound 4006], under “class symbol”, the EC50 was under 0.1 µM. The compound `CNC(=O)c1c(-c2ccc(F)cc2)oc2c1cc(-c1cccc(C(=O)O)c1)c1c2ccn1C(=O)C(F)(F)F` [Compound 3002, 3-(2-(4-fluorophenyl)-3-(methylcarbamoyl)-6-(2,2,2-trifluoroacetyl)-6H-furo[2,3-e]indol-5-yl)benzoic acid] gave a concentration for a half-maximal effect (EC50) (class symbol) of over 1 µM. Same read-out and setting: with `CNC(=O)c1c(-c2ccc(F)cc2)oc2c1cc(-c1cccc(C(=O)NC(C)(C)C)c1)c1c2cc(C)n1S(C)(=O)=O` [Compound 5005] the figure was over 1 µM; with `CNC(=O)c1c(-c2ccc(F)cc2)oc2c1cc(OC(C)C)c1c2ccn1S(C)(=O)=O` [Compound 5001, 2-(4-fluorophenyl)-5-isopropoxy-N-methyl-6-(methylsulfonyl)-6H-furo[2,3-e]indole-3-carboxamide], over 1 µM.

Regarding `CNC(=O)c1c(-c2ccc(F)cc2)oc2c1cc(-c1cccc(C(=O)OC)c1)c1[nH]ccc12` [Compound 1003], the EC50 is over 1 µM (class symbol) and 1.46 µM (numeric value). In the case of `CNC(=O)c1c(-c2ccc(F)cc2)oc2c1cc(-c1cccc(C(=O)OC(C)(C)C)c1)c1[nH]ccc12` [Compound 1004, tert-butyl 3-(2-(4-fluorophenyl)-3-(methylcarbamoyl)-6H-furo[2,3-e]indol-5-yl)benzoate], for the setting “class symbol”, the EC50 is 0.1 to 1 µM.

For `CNC(=O)c1c(-c2ccc(F)cc2)oc2c1cc(-c1cccc(C(=O)NC(C)(C)C)c1)c1c2cc(-c2ccccc2)n1S(C)(=O)=O` [Compound 5004], the concentration for a half-maximal effect (EC50) (class symbol) is 0.1 to 1 µM. In turn, `CNC(=O)c1c(-c2ccc(F)cc2)oc2c1cc(-c1cccc(C(=O)NC(C)(C)c3ccc(Cl)cc3)c1)c1c2ccn1S(C)(=O)=O` [Compound 5006] had an EC50 (class symbol) of under 0.1 µM. In the case of `CNC(=O)c1c(-c2ccc(F)cc2)oc2c1cc(-c1cccc(C(=O)NCC(C)(C)c3ccccc3)c1)c1[nH]ccc12` [Compound 4016], the EC50 (class symbol) lay in the range of 0.1 to 1 µM. Turning to `CNC(=O)c1c(-c2ccc(F)cc2)oc2c1cc(-c1cccc(C(=O)NC(C)(C)C)c1)c1c2ccn1C(=O)C(F)(F)F` [Compound 3003], the EC50 was 0.1 to 1 µM (class symbol) and 0.2 µM (numeric value). For the compound `CNC(=O)c1c(-c2ccc(F)cc2)oc2c1cc(-c1cccc(C(=O)NCC(F)(F)C(F)(F)C(F)(F)F)c1)c1[nH]ccc12` [Compound 4007], the EC50 (class symbol) is under 0.1 µM and the EC50 (numeric value) was 0.049 µM. Where the note is “class symbol”, `CNC(=O)c1c(-c2ccc(F)cc2)oc2c1cc(-c1cccc(C(=O)NCC(C)(C)c3ccc(Cl)cc3)c1)c1[nH]ccc12` [Compound 4009, 5-(3-((2-(4-chlorophenyl)-2-methylpropyl)carbamoyl)phenyl)-2-(4-fluorophenyl)-N-methyl-6H-furo[2,3-e]indole-3-carboxamide] came in with an EC50 of 0.1 to 1 µM. The compound `C#CC(C)NC(=O)c1cccc(-c2cc3c(C(=O)NC)c(-c4ccc(F)cc4)oc3c3cc[nH]c23)c1` (centres unmarked) [Compound 4021] returned an EC50 (class symbol) of 0.1 to 1 µM. Under “class symbol”, `CNC(=O)c1c(-c2ccc(F)cc2)oc2c1cc(-c1cccc(C(=O)NC3(C(=O)OC)CCC3)c1)c1[nH]ccc12` [Compound 4012] showed an EC50 of 0.1 to 1 µM.

The compound `CNC(=O)c1c(-c2ccc(F)cc2)oc2c1cc(OC(C)C)c1[nH]cc(C(=O)C(=O)O)c12` [Compound 2002] registered an EC50 (class symbol) of over 1 µM. For `CCc1c[nH]c2c(OC(C)C)cc3c(C(=O)NC)c(-c4ccc(F)cc4)oc3c12` [Compound 6003], for the setting “class symbol”, the EC50 was over 1 µM. For the compound `CNC(=O)C(=O)c1c[nH]c2c(OC(C)C)cc3c(C(=O)NC)c(-c4ccc(F)cc4)oc3c12` [Compound 2001], the EC50 (class symbol) is over 1 µM.
